# Values of other authors, collected in patent publication US20210008209A1, “COMBINATION THERAPY FOR TTR AMYLOIDOSIS” (Corino Therapeutics, Inc., priority 2018, published 2021).
# What was measured:
# TTR native tetramer [1] = molecular target: T1, TTR native tetramer (Homo sapiens, UniProt P02766); conditions: humans
# T1 construct: host or cells: humans (in vivo)
# TTR = molecular target: T2, TTR (Homo sapiens, UniProt P02766)
# T2 construct: host or cells: human plasma
# TTR native tetramer [2] = conditions: mice
smiles,measurement,setting,value
"Cc1ccc(C(=O)c2cc(O)c(O)c([N+](=O)[O-])c2)cc1 [Tolcapone, tolcapone]",stabilization of the native tetramer in vivo,TTR native tetramer [1],stabilizes the native tetramer
same,binding to TTR in human plasma,TTR,binds specifically to TTR
same,TTR cytotoxicity,TTR cytotoxicity,inhibits TTR cytotoxicity
same,stabilization of the native tetramer in vivo,TTR native tetramer [2],stabilizes the native tetramer
